In patent US20120277165A1, “METHODS OF MODULATING FUCOSYLATION OF GLYCOPROTEINS” (priority 2009, published 2012):

Key:
[1] = tested on: Lec 13.6 A cells (CHO cells deficient in GDP-mannose 4,6, dehydratase) expressing CTLA4Ig; experiment: Degree of core fucosylation of glycans on secreted CTLA4Ig (PNGase F, MALDI mass spectrometry); format: cell-based, Chinese hamster; details: CTLA4Ig from Lec 13.6A cells
Protocol: (§1) The levels of GDP-fucose levels and the degree of protein fucosylation on glycoproteins were analyzed for three different CHO cell lines expressing a representative secreted protein product (CTLA4Ig): CHO cells that are deficient in the enzyme GDP-mannose 4,6, dehydratase (Lec 13.6 A); CHO cells that have lowered levels of GDP-fucose (Lec 2); and wild-type CHO cells. […] Cells were harvested, and snap frozen, while culture supernatant was harvested and CTLA4Ig harvested by protein A purification for subsequent analysis. Cells were then subjected to nucleotide sugar extraction using standard methods. In short with chloroform:methanol:water (2:4:1), the pellets discarded and the resulting extraction dried down. The dried material was subsequently resuspended in 500 ul of 10% butanol in water and then extracted with 1 ml of 90% butanol in water. […] For quantification, sugar-nucletides were resolved with RP chromatography.
(§2) Protein products were isolated from culture supernatant by protein A affinity, and subjected to PNGase F treatment to remove glycans. The resulting glycans were isolated by PGC chromatography and subsequently analyzed by MALDI mass spectrometry. The % fucosylation was determined by determining the ratio of the glycans with or without core fucosylation. GDP-fucose levels are indicated in peak area as detected by UV.

[2] = tested on: Lec 13.6 A cells (CHO cells deficient in GDP-mannose 4,6, dehydratase) expressing CTLA4Ig; experiment: GDP-fucose levels in CHO cells (nucleotide sugar extraction, RP chromatography, UV); format: cell-based, Chinese hamster; details: relative to wild-type CHO = 100
Protocol: as §1, §2

[3] = 0.01 mM exogenous fucose in culture media
[4] = 1 mM exogenous fucose in culture media

C[C@H](O)[C@@H](O)[C@@H](O)[C@H](O)C=O [fucose]
% Fucosylated Glycans [1, 3]: 45%
% Fucosylated Glycans [1, 4]: 100%
% of Parental GDP-fucose [2, 3]: 62.5%
% of Parental GDP-fucose [2, 4]: 270%
